Experiments:
[1] = system: antibodies in sera from SARS patients (sera 1a, 1b, 2, 6, 37, 62, London, SARS-yellow, SARS-green); format: binding, human; design: Binding of serum 6 to linear peptides of protein X1 of SARS-CoV Urbani / Binding of serum 37 to linear peptides of protein X1 of SARS-CoV Urbani / Binding of serum 6 to looped/cyclic peptide (PEPSCAN-ELISA) / Binding of serum 37 to looped/cyclic peptide (PEPSCAN-ELISA) / Binding of serum 37 to looped/cyclic peptides of protein X1 of SARS-CoV Urbani / Binding of serum 6 to linear peptides of protein X2 / Binding of serum 37 to linear peptides of protein X2 / Binding of serum 37 to looped/cyclic peptides of protein X2 of SARS-CoV Urbani / Binding of serum 6 to linear peptides of protein M of SARS-CoV Urbani / Binding of serum 37 to linear peptides of protein M of SARS-CoV Urbani / Binding of serum 6 to looped/cyclic peptides of protein M of SARS-CoV Urbani / Binding of serum 37 to looped/cyclic peptides of protein M of SARS-CoV Urbani / Binding of serum 6 to linear peptides of protein X3 of SARS-CoV Urbani / Binding of serum 37 to linear peptides of protein X3 of SARS-CoV Urbani / Binding of serum 37 to looped/cyclic peptides of protein X3 of SARS-CoV Urbani / Binding of serum 6 to linear peptides of protein X4 of SARS-CoV Urbani / Binding of serum 37 to linear peptides of protein X4 of SARS-CoV Urbani / Binding of serum 37 to looped/cyclic peptides of protein X4 of SARS-CoV Urbani / Binding of serum 6 to linear peptides of protein X5 of SARS-CoV Urbani / Binding of serum 37 to linear peptides of protein X5 of SARS-CoV Urbani / Binding of serum 37 to looped/cyclic peptides of protein X5 of SARS-CoV Urbani / Binding of serum 6 to linear peptides of protein N of SARS-CoV Urbani / Binding of serum 37 to linear peptides of protein N of SARS-CoV Urbani / Binding of serum 6 to linear peptide (PEPSCAN-ELISA) / Binding of serum 1a to looped/cyclic peptides of protein N of SARS-CoV Urbani / Binding of serum 1b to looped/cyclic peptides of protein N of SARS-CoV Urbani / Binding of serum 2 to looped/cyclic peptides of protein N of SARS-CoV Urbani / Binding of serum 6 to looped/cyclic peptides of protein N of SARS-CoV Urbani / Binding of serum 37 to looped/cyclic peptides of protein N of SARS-CoV Urbani / Binding of serum 62 to looped/cyclic peptides of protein N of SARS-CoV Urbani / Binding of serum London to looped/cyclic peptides of protein N of SARS-CoV Urbani / Binding of serum SARS-green to looped/cyclic peptides of protein N of SARS-CoV Urbani: unit not given here
[2] = system: control sera (pooled serum of ten healthy LUMC hospital workers; commercial negative donor pooled serum from the Dutch bloodbank); format: binding, human; design: Binding of Control serum LUMC to linear peptides / Binding of Control serum Blood-bank to linear peptides / Binding of Control serum LUMC to looped peptides / Binding of Control Serum Blood-Bank to Looped peptides / Binding of Control serum LUMC to linear peptides of the protein M of SARS-CoV Urbani / Binding of Control serum Blood-bank to linear peptides of the protein M of SARS-CoV Urbani / Binding of Control serum LUMC to looped peptides of the protein M of SARS-CoV Urbani / Binding of Control Serum Blood-Bank to Looped peptides of the protein M of SARS-CoV Urbani: unit not given here
[3] = system: rabbit serum obtained by immunizing a rabbit with the SARS-CoV strain Frankfurt 1; format: binding; design: Binding of a rabbit serum to linear peptides / Binding of a rabbit serum to looped peptides / Rabbit serum linear peptides / Rabbit serum looped peptides / Binding of a rabbit serum to linear peptides of protein N of SARS-CoV Urbani (Rabbit serum linear peptides) / Binding of a rabbit serum to looped/cyclic peptides of protein N of SARS-CoV Urbani (Rabbit serum looped peptides): unit not given here
[4] = system: recombinant human anti-SARS-CoV antibody 03-018; format: binding; design: Binding of antibody 03-018 to linear peptides of the N protein of SARS-CoV Urbani / Binding of antibody 03-018 to looped/cyclic peptides of the N protein of SARS-CoV Urbani: unit not given here

Sequence	Binding of serum 1a to linear peptides of protein N of SARS-CoV Urbani [1]	Binding of serum 1a to looped/cyclic peptides of protein N of SARS-CoV Urbani [1]	Binding of serum 1b to linear peptides of protein N of SARS-CoV Urbani [1]	Binding of serum 1b to looped/cyclic peptides of protein N of SARS-CoV Urbani [1]	Binding of serum 2 to linear peptides of protein N of SARS-CoV Urbani [1]	Binding of serum 2 to looped/cyclic peptides of protein N of SARS-CoV Urbani [1]	Binding of serum 6 to looped/cyclic peptides of protein N of SARS-CoV Urbani [1]	Binding of serum 37 to looped/cyclic peptides of protein N of SARS-CoV Urbani [1]	Binding of serum 62 to looped/cyclic peptides of protein N of SARS-CoV Urbani [1]	Binding of serum London to looped/cyclic peptides of protein N of SARS-CoV Urbani [1]	Binding of serum SARS-green to looped/cyclic peptides of protein N of SARS-CoV Urbani [1]	Binding of serum SARS-yellow to looped/cyclic peptides of protein N of SARS-CoV Urbani [1]	Binding of Control Serum Blood-Bank to Looped peptides [2]	Binding of Control serum Blood-bank to linear peptides [2]	Binding of Control serum LUMC to linear peptides [2]	Binding of Control serum LUMC to looped peptides [2]	Binding of a rabbit serum to linear peptides of protein N of SARS-CoV Urbani (Rabbit serum linear peptides) [3]	Binding of a rabbit serum to looped/cyclic peptides of protein N of SARS-CoV Urbani (Rabbit serum looped peptides) [3]	Binding of antibody 03-018 to linear peptides of the N protein of SARS-CoV Urbani [4]	Binding of antibody 03-018 to looped/cyclic peptides of the N protein of SARS-CoV Urbani [4]	also measured
NTPKDHIGTRNPNNN	0.3	0.4	0.1	0.3	0.3	0.4	0.3	0.6	0.3	0.4	0.4	0.4	0.5	0.8	0.7	0.6	0.1	0.1	0.1	0.2	Binding of serum 6 to linear peptides of protein N of SARS-CoV Urbani [1]: 0.2; Binding of serum 37 to linear peptides of protein N of SARS-CoV Urbani [1]: 0.8; Binding of serum 62 to linear peptides of protein N of SARS-CoV Urbani [1]: 0.7; Binding of serum London to linear peptides of protein N of SARS-CoV Urbani [1]: 0.4; Binding of serum SARS-green to linear peptides of protein N of SARS-CoV Urbani [1]: 0.4; Binding of serum SARS-yellow to linear peptides of protein N of SARS-CoV Urbani [1]: 0.6
SRNSTPGSSRGNSPA		0.6		0.6		0.4	0.4	0.5	0.5	0.4	0.3	0.4	0.7	0.9	0.9	0.7	0.1	0.6	0.1	0.2	Binding of serum 1a to linear peptide (PEPSCAN-ELISA) [1]: 0.7; Binding of serum 1b to linear peptide (PEPSCAN-ELISA) [1]: 0.5; Binding of serum 2 to linear peptide (PEPSCAN-ELISA) [1]: 0.4; Binding of serum 6 to linear peptide (PEPSCAN-ELISA) [1]: 0.2; Binding of serum 37 to linear peptide (PEPSCAN-ELISA) [1]: 0.8; Binding of serum 62 to linear peptide (PEPSCAN-ELISA) [1]: 0.9; Binding of serum London to linear peptide (PEPSCAN-ELISA) [1]: 0.6; Binding of serum SARS-green to linear peptide (PEPSCAN-ELISA) [1]: 0.4; Binding of serum SARS-yellow to linear peptide (PEPSCAN-ELISA) [1]: 0.7
NTASWFTALTQHGKE	0.2	0.2	0.1	0.2	0.1	0.2	0.1	0.4	0.3	0.3	0.3	0.3	0.5	0.5	0.6	0.4	0.1	0.1	0.1	0.2	Binding of serum 6 to linear peptides of protein N of SARS-CoV Urbani [1]: 0.1; Binding of serum 37 to linear peptides of protein N of SARS-CoV Urbani [1]: 0.7; Binding of serum 62 to linear peptides of protein N of SARS-CoV Urbani [1]: 0.5; Binding of serum London to linear peptides of protein N of SARS-CoV Urbani [1]: 0.4; Binding of serum SARS-green to linear peptides of protein N of SARS-CoV Urbani [1]: 0.4; Binding of serum SARS-yellow to linear peptides of protein N of SARS-CoV Urbani [1]: 0.5
TALTQHGKEELRFPR	0.2	0.4	0.1	0.3	0.2	0.6	0.5	0.8	0.6	0.6	0.7	0.7	0.8	0.8	0.6	0.8	0.1	0.4	0.1	0.3	Binding of serum 6 to linear peptides of protein N of SARS-CoV Urbani [1]: 0.1; Binding of serum 37 to linear peptides of protein N of SARS-CoV Urbani [1]: 0.7; Binding of serum 62 to linear peptides of protein N of SARS-CoV Urbani [1]: 0.6; Binding of serum London to linear peptides of protein N of SARS-CoV Urbani [1]: 0.5; Binding of serum SARS-green to linear peptides of protein N of SARS-CoV Urbani [1]: 0.4; Binding of serum SARS-yellow to linear peptides of protein N of SARS-CoV Urbani [1]: 0.5
